Laboratory results taken from publication PMC5904360, “Soluble N-Ethylmaleimide-Sensitive Factor Attachment Protein Receptor-Derived Peptides for Regulation of Mast Cell Degranulation” (Frontiers in Immunology, 2018).

Assays:
[1] = biological target: T1, SN23-Syn4-Vp8 SNARE complex (Rattus norvegicus, UniProt O70377+Q08850+Q9WUF4); assay: SNARE-driven membrane fusion (total lipid mixing) assay with proteoliposomes; assay type: biochemical; details: for inhibition of membrane fusion (lipid mixing): inhibitor applied to T-vesicles, T:V 9:1, 37°C, NBD dequenching, Vp2S/Vp8S at 10 µM, three independent experiments (Figure 3B-D); for inhibition of membrane fusion, peptide added before preincubation: peptide added before preincubation of T- and V-liposomes at 4°C overnight (Figure 4A)
T1 construct: Syn4 (amino acids 1–298); SNAP-23 (amino acids 1–210); VAMP8 (amino acids 1–100); GST (N, cleaved yes); made in house; host or cells: Escherichia coli Rosetta(DE3)pLysS
T1 sequence (Q08850 1-298): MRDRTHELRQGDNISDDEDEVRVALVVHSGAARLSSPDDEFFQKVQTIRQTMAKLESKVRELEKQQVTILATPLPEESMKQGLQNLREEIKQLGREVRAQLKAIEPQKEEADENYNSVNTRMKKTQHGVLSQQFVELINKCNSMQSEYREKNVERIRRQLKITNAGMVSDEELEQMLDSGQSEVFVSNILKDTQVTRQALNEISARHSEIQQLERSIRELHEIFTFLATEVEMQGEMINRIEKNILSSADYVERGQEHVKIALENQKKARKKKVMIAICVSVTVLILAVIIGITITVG
T1 sequence (O70377 1-210): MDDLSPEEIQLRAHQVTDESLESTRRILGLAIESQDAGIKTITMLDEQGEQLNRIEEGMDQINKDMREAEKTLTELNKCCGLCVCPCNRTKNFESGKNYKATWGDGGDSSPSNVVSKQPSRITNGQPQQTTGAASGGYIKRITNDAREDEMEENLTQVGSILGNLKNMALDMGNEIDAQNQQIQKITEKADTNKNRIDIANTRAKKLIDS
T1 sequence (Q9WUF4 1-100): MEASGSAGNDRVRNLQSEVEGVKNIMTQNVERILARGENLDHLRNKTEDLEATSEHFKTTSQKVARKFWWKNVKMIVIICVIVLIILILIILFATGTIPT
Description: Total RNA was obtained from RBL-2H3 cells using TRIzol® Reagent (#15596026, Invitrogen, Carlsbad, CA, USA) and served as a template for cDNA synthesis with M-MLV reverse transcriptase (M1705, Promega, Madison, WI, USA) according to the manufacturer’s protocol. The cDNAs amplified for rat Syn4, SNAP-23, VAMP2, VAMP4, VAMP7, and VAMP8 using each primer pair ([4]), were cloned into the pGEX-4T 1 vector. The mast cell SNARE proteins [Syn4 (amino acids 1–298), SNAP-23 (amino acids 1–210), full-length VAMP2 (VpF, amino acids 1–116), VAMP4 (amino acids 1–141), and VAMP8 (amino acids 1–100)] were expressed in Escherichia coli Rosetta(DE3)pLysS (#70956, Novagen, Darmstadt, Germany) and purified as glutathione-S-transferase-tagged fusion proteins as reported previously ([8]).
To prepare the unilamellar liposomes, a 50-mM lipid mixture of palmitoyl-2-oleoylphosphatidylcholine (POPC) (#850457, Avanti Polar Lipids, Alabaster, AL, USA):1,2-dioleoyl-phosphatidylserine (DOPS) (#840035, Avanti Polar Lipids) at 65:35 mol% was dried in a glass tube under a gentle stream of nitrogen gas and then exposed to a vacuum overnight. The resultant lipid film was resuspended in dialysis buffer (25 mM HEPES and 100 mM KCl, pH 7.4) by vortexing, followed by an extrusion step with polycarbonate membrane filters having a pore size of 100 nm (#610005, Avanti Polar Lipids). To prepare proteoliposomes, binary T-SNAREs, which were pre-formed by mixing Syn4 and SNAP-23 at room temperature for 60 min, were incubated with 50 mM unilamellar liposomes for 15 min at the same temperature, resulting in a 50:1 lipid/protein molar ratio ([9]).
For the preparation of V-SNARE proteoliposomes, a 10-mM premixed lipid solution [POPC:DOPS:N-(7-nitro-2-1,3-benzoxadiazol-4-yl (NBD))-phosphatidylserine (#810198, Avanti Polar Lipids):[…] (#810150, Avanti Polar Lipids) = 62:35:1.5:1.5 (molar ratio)] was used for the preparation of fluorescent liposomes in the same manner as above. The prepared liposomes were then mixed with VAMP2 for 15 min at room temperature. The liposome/protein mixture was diluted twice to bring the concentration of n-octyl glucoside (O8001, Sigma-Aldrich) below the critical micelle concentration. After overnight dialysis against 1L dialysis buffer at 4°C to remove the detergent, SM-2 bio-beads (#1523920, Bio-Rad Laboratories, Hercules, CA, USA) were added to the sample to remove any remaining n-octyl glucoside. The solution was then centrifuged at 10,000 × g to remove the protein/lipid aggregates, and the final lipid concentrations of both the T- and V-liposomes were adjusted to 1 mM with a lipid-to-protein ratio of 50:1.
A total lipid mixing assay using the T- and V-liposomes was performed as described previously with minor modifications ([8]). Briefly, peptide inhibitors were applied to the T-vesicles at the indicated concentrations and then the T-vesicles were mixed with the V-vesicles in a 384-well plate for the initiation of fusion, with a T- to V-vesicle volume ratio of 9:1. The fusion was monitored using the dequenching of NBD fluorescence signal (excitation 465 nm/emission 530 nm). After at least 80 min of fusion, the maximum NBD signal was obtained by adding 0.1% Triton X-100™. All the lipid-mixing experiments were performed at 37°C.

SN23-Syn4-Vp8 complex = biological target: T2, SN23-Syn4-Vp8 complex (Rattus norvegicus, UniProt O70377+Q08850+Q9WUF4); assay: Co-immunoprecipitation of SNARE complexes in activated RBL-2H3 cells, anti-SNAP-23 blot; assay type: cell-based; details: peptides added to the medium after A23187 pretreatment; IP of Vp8, blot anti-SNAP-23 (Figure 4C)
T2 construct: Lysates of RBL-2H3 cells; endogenous in cells; host or cells: RBL-2H3 (ATCC CRL-2256)
T2 sequence (Q08850 1-298): T1 sequence (Q08850 1-298)
T2 sequence (O70377 1-210): T1 sequence (O70377 1-210)
T2 sequence (Q9WUF4 1-100): T1 sequence (Q9WUF4 1-100)
Procedure: Lysates of RBL-2H3 cells (0.5–1 × 10^6 cells), which were obtained by the addition of 1 mL lysis buffer (50 mM Tris–HCl, 150 mM NaCl, 1% Triton X-100™, 1 mM EDTA, pH 7.5) supplemented with a protease inhibitor cocktail (Calbiochem®, Merck Millipore, Billerica, MA, USA), were centrifuged at 13,000 g at 4°C to remove cell debris and precleared with 100 µL protein G Sepharose® (GE Healthcare) for 2 h at 4°C. The precleared lysates were incubated with antibodies against SNARE proteins (Syn4, SNAP-23, VAMP2, and VAMP8) for 2 h at 4°C for binding, and then the antibody–antigen complexes were precipitated by incubation with a protein G slurry overnight with constant shaking. After an extensive washing step with lysis buffer, an immunoblotting analysis was performed for the precipitates. The immunoprecipitated proteins and cell lysates were electrophoresed on 12% sodium dodecyl sulfate-polyacrylamide gel electrophoresis gels and then transferred to nitrocellulose blotting membranes (GE Healthcare). After blocking the membranes in TBST (10 mM Tris–HCl, 150 mM NaCl, and 0.05% Tween® 20, pH 8) containing 0.5% BSA and 5% skim milk for 1 h at room temperature, primary anti-SNAP-23 antibody (1:1,000 dilution) in TBST supplemented with 1% BSA and 0.01% sodium azide was added and incubated at 4°C overnight. The membranes were washed with TBST, treated with a horseradish peroxidase-conjugated secondary anti-mouse IgG antibody (A4416, Sigma-Aldrich), and visualized using enhanced chemiluminescence solution for the development of a luminescent signal.

Row | Sequence | inhibition of membrane fusion (lipid mixing) [1] | inhibition of membrane fusion, peptide added before preincubation [1] | SNARE complex formation in cells (amount of SN23-Syn4-Vp8 complex) (SN23-Syn4-Vp8 complex)
1 | EDEMEENLTQVGSILGN [SC23N, 17-mer peptide, N-terminal region of SNAP-23 SNARE motif SC23] | inhibited membrane fusion by both the SN23-Syn4-Vp2 and SN23-Syn4-Vp8 complexes | inhibited the membrane fusion induced by both SN23-Syn4-Vp2 and SN23-Syn4-Vp8 | reduced
2 | LQSEVEGVKNIMTQNVE [Vp8N, 17-mer peptide, N-terminal region of VAMP8 SNARE motif] | specific to the SN23-Syn4-Vp8 complex | inhibited the membrane fusion driven only by their cognate SNARE complexes | reduced
3 | SARHSEIQQLERTIREL [Syn4N, 17-mer peptide, N-terminal region of syntaxin 4 SNARE motif] | inhibited membrane fusion by both the SN23-Syn4-Vp2 and SN23-Syn4-Vp8 complexes | inhibited the membrane fusion induced by both SN23-Syn4-Vp2 and SN23-Syn4-Vp8 | reduced
